What all share (settings): the molecule shown is the open-chain precursor, MeCN/H2O 30:70 (SI: 1:3) + 1% HCOOH, small amount of DMF, 10.0 mM, 25.0 °C
Data set [1] in a line: Met bis-alkylation (bis-sulfonium staple) of one unprotected peptide with different dihalide linkers (1.2 equiv), 1% HCOOH (pH ~3), 24 h.
Data set [2] is described as follows: Met bis-alkylation (bis-sulfonium staple) with linker c, 1,4-bis(bromomethyl)benzene (1.2 equiv), 1% HCOOH (pH ~3), 24 h.
Data set [3] can be described thus: Met bis-alkylation (bis-sulfonium staple) with linker a, 1,3-bis(bromomethyl)benzene (1.2 equiv), 1% HCOOH (pH ~3), 24 h.

This is an account of results in paper PMC5931191, “Reversible stapling of unprotected peptides via chemoselective methionine bis-alkylation/dealkylation” (Chemical Science, 2018).

As to `CSCC[C@H](NC(=O)[C@H](CC(=O)O)NC(=O)CNC(=O)[C@H](CCCNC(=N)N)NC(=O)[C@H](CC[S+](C)Cc1ccc(-c2ccc(CBr)cc2)cc1)NC(=O)[C@H](Cc1c[nH]c2ccccc12)NC(C)=O)C(N)=O` (stereo partly shown), the ring closure, conversion by HPLC in data set [1] (29-membered ring) was 60%.
With `CSCC[C@H](NC(=O)[C@H](CC(=O)O)NC(=O)CNC(=O)[C@H](CCCNC(=N)N)NC(=O)[C@H](CC[S+](C)Cc1nc2ccccc2nc1CBr)NC(=O)[C@H](Cc1c[nH]c2ccccc12)NC(C)=O)C(N)=O` (stereo partly shown), the ring closure, conversion by HPLC in data set [1] (23-membered ring) was found to be 53%.
In the case of `CSCC[C@H](NC(=O)[C@H](CC(=O)O)NC(=O)CNC(=O)[C@H](CCCNC(=N)N)NC(=O)[C@H](CC(=O)O)NC(=O)CNC(=O)[C@H](CCCNC(=N)N)NC(=O)[C@H](CC[S+](C)Cc1ccc(CBr)cc1)NC(=O)[C@H](Cc1c[nH]c2ccccc12)NC(C)=O)C(N)=O` (stereo partly drawn) [Ac-Trp-Met-Arg-Gly-Asp-Arg-Gly-Asp-Met-NH2], in data set [2] (34-membered ring), the ring closure, conversion by HPLC worked out at 54%.
As to `CSCC[C@H](NC(=O)[C@H](CC(=O)O)NC(=O)CNC(=O)[C@H](CCCNC(=N)N)NC(=O)[C@H](CC(=O)O)NC(=O)CNC(=O)[C@H](CCCNC(=N)N)NC(=O)[C@H](CC[S+](C)Cc1cccc(CBr)c1)NC(=O)[C@H](Cc1c[nH]c2ccccc12)NC(C)=O)C(N)=O` (stereo partly drawn) [Ac-Trp-Met-Arg-Gly-Asp-Arg-Gly-Asp-Met-NH2], the ring closure, conversion by HPLC in data set [3] (33-membered ring) came out at 85%.
Turning to `CSCC[C@H](NC(=O)[C@H](CC(=O)O)NC(=O)CNC(=O)[C@H](CCCNC(=N)N)NC(=O)[C@H](CC[S+](C)Cc1ccccc1CBr)NC(=O)[C@H](Cc1c[nH]c2ccccc12)NC(C)=O)C(N)=O` (stereo partly drawn) [Ac-Trp-Met-Arg-Gly-Asp-Met-NH2 + 1,2-bis(bromomethyl)benzene], the ring closure, conversion by HPLC in data set [1] (23-membered ring) came to 58%.
On to `CSCC[C@H](NC(=O)[C@H](CC(=O)O)NC(=O)CNC(=O)[C@H](CCCNC(=N)N)NC(=O)[C@H](CC[S+](C)Cc1cccc(CBr)c1)NC(=O)[C@H](Cc1c[nH]c2ccccc12)NC(C)=O)C(N)=O` (stereo partly drawn) [Ac-Trp-Met-Arg-Gly-Asp-Met-NH2 + 1,3-bis(bromomethyl)benzene], for which the ring closure, conversion by HPLC in data set [1] (24-membered ring) was found to be 88%.
With `CSCC[C@H](NC(=O)[C@H](CC(=O)O)NC(=O)CNC(=O)[C@H](CCCNC(=N)N)NC(=O)[C@H](CC[S+](C)Cc1ccc(CBr)cc1)NC(=O)[C@H](Cc1c[nH]c2ccccc12)NC(C)=O)C(N)=O` (stereo partly drawn) [Ac-Trp-Met-Arg-Gly-Asp-Met-NH2 + 1,4-bis(bromomethyl)benzene], the ring closure, conversion by HPLC in data set [1] (25-membered ring) was 49%.
As to `CSCC[C@H](NC(=O)[C@H](CC(=O)O)NC(=O)CNC(=O)[C@H](CCCNC(=N)N)NC(=O)[C@H](CC[S+](C)CC(=O)C(=O)CBr)NC(=O)[C@H](Cc1c[nH]c2ccccc12)NC(C)=O)C(N)=O` (stereo partly drawn) [Ac-Trp-Met-Arg-Gly-Asp-Met-NH2 + 1,4-dibromobutane-2,3-dione], in data set [1] (23-membered ring), the ring closure, conversion by HPLC is 64%.
Same read-out and setting: next, `CSCC[C@H](NC(=O)[C@H](CC(=O)O)NC(=O)CNC(=O)[C@H](CCCNC(=N)N)NC(=O)[C@H](CC[S+](C)CCCCBr)NC(=O)[C@H](Cc1c[nH]c2ccccc12)NC(C)=O)C(N)=O` (stereo partly drawn) [Ac-Trp-Met-Arg-Gly-Asp-Met-NH2 + 1,4-dibromobutane]: 0%; `CSCC[C@H](NC(=O)[C@H](CC(=O)O)NC(=O)CNC(=O)[C@H](CCCNC(=N)N)NC(=O)[C@H](CC[S+](C)CCCCI)NC(=O)[C@H](Cc1c[nH]c2ccccc12)NC(C)=O)C(N)=O` (stereo partly drawn) [Ac-Trp-Met-Arg-Gly-Asp-Met-NH2 + 1,4-diiodobutane]: 0%.
On to `CSCC[C@H](NC(=O)[C@H](CC(=O)O)NC(=O)CNC(=O)[C@H](CCCNC(=N)N)NC(=O)[C@H](CC[S+](C)C/C=C/CBr)NC(=O)[C@H](Cc1c[nH]c2ccccc12)NC(C)=O)C(N)=O` (stereo partly drawn) [Ac-Trp-Met-Arg-Gly-Asp-Met-NH2 + (E)-1,4-dibromobut-2-ene], for which the ring closure, conversion by HPLC in data set [1] (23-membered ring) was 93%.
Take `CSCC[C@H](NC(=O)[C@H](CC(C)C)NC(=O)[C@H](CS)NC(=O)[C@H](CC[S+](C)Cc1ccc(CBr)cc1)NC(=O)[C@H](Cc1c[nH]c2ccccc12)NC(C)=O)C(=O)N[C@@H](C)C(N)=O` (stereo partly drawn) [Ac-Trp-Met-Cys-Leu-Met-Ala-NH2]: the ring closure, conversion by HPLC in data set [2] (22-membered ring) was above 95%.
With `CSCC[C@H](NC(=O)[C@H](CC(C)C)NC(=O)[C@H](CS)NC(=O)[C@H](CC[S+](C)Cc1cccc(CBr)c1)NC(=O)[C@H](Cc1c[nH]c2ccccc12)NC(C)=O)C(=O)N[C@@H](C)C(N)=O` (stereo partly drawn) [Ac-Trp-Met-Cys-Leu-Met-Ala-NH2], in data set [3] (21-membered ring), the ring closure, conversion by HPLC was above 95%.
`CSCC[C@H](NC(=O)[C@H](CC(=O)O)NC(=O)[C@@H](NC(=O)[C@H](Cc1c[nH]cn1)NC(=O)[C@H](CC[S+](C)Cc1ccc(CBr)cc1)NC(=O)[C@H](Cc1c[nH]c2ccccc12)NC(C)=O)C(C)C)C(=O)N[C@@H](C)C(N)=O` (stereo partly drawn) [Ac-Trp-Met-His-Val-Asp-Met-Ala-NH2]: in data set [2] (25-membered ring), the ring closure, conversion by HPLC was determined as 85%.
For `CSCC[C@H](NC(=O)[C@H](CC(=O)O)NC(=O)[C@@H](NC(=O)[C@H](Cc1c[nH]cn1)NC(=O)[C@H](CC[S+](C)Cc1cccc(CBr)c1)NC(=O)[C@H](Cc1c[nH]c2ccccc12)NC(C)=O)C(C)C)C(=O)N[C@@H](C)C(N)=O` (stereo partly drawn) [Ac-Trp-Met-His-Val-Asp-Met-Ala-NH2], the ring closure, conversion by HPLC in data set [3] (24-membered ring) is 73%.
On to `CSCC[C@H](NC(=O)[C@H](CCC(=O)O)NC(=O)[C@H](CCCCN)NC(=O)[C@H](CC[S+](C)Cc1ccc(CBr)cc1)NC(=O)[C@H](Cc1c[nH]c2ccccc12)NC(C)=O)C(=O)N[C@@H](C)C(N)=O` (stereo partly drawn) [Ac-Trp-Met-Lys-Glu-Met-Ala-NH2], for which the ring closure, conversion by HPLC in data set [2] (22-membered ring) is 73%.
On to `CSCC[C@H](NC(=O)[C@H](CCC(=O)O)NC(=O)[C@H](CCCCN)NC(=O)[C@H](CC[S+](C)Cc1cccc(CBr)c1)NC(=O)[C@H](Cc1c[nH]c2ccccc12)NC(C)=O)C(=O)N[C@@H](C)C(N)=O` (stereo partly drawn) [Ac-Trp-Met-Lys-Glu-Met-Ala-NH2], for which, in data set [3] (21-membered ring), the ring closure, conversion by HPLC came to 85%.
With `CC[C@H](C)[C@H](NC(=O)[C@H](CCCCN)NC(=O)[C@H](CC[S+](C)Cc1ccc(CBr)cc1)NC(=O)[C@H](Cc1c[nH]c2ccccc12)NC(C)=O)C(=O)N[C@@H](CCC(=O)O)C(=O)N[C@@H](CCSC)C(=O)N[C@@H](C)C(N)=O` (stereo partly drawn) [Ac-Trp-Met-Lys-Ile-Glu-Met-Ala-NH2], the ring closure, conversion by HPLC in data set [2] (25-membered ring) worked out at 83%.
On to `CC[C@H](C)[C@H](NC(=O)[C@H](CCCCN)NC(=O)[C@H](CC[S+](C)Cc1cccc(CBr)c1)NC(=O)[C@H](Cc1c[nH]c2ccccc12)NC(C)=O)C(=O)N[C@@H](CCC(=O)O)C(=O)N[C@@H](CCSC)C(=O)N[C@@H](C)C(N)=O` (stereo partly drawn) [Ac-Trp-Met-Lys-Ile-Glu-Met-Ala-NH2], for which the ring closure, conversion by HPLC in data set [3] (24-membered ring) turned out to be 77%.
Regarding `CSCC[C@H](NC(=O)[C@H](Cc1c[nH]cn1)NC(=O)[C@@H]1CCCN1C(=O)[C@H](CC[S+](C)Cc1ccc(CBr)cc1)NC(=O)[C@H](Cc1c[nH]c2ccccc12)NC(C)=O)C(=O)N[C@@H](C)C(N)=O` (stereo partly drawn) [Ac-Trp-Met-Pro-His-Met-Ala-NH2], in data set [2] (22-membered ring), the ring closure, conversion by HPLC is 74%.
As for `CSCC[C@H](NC(=O)[C@H](Cc1c[nH]cn1)NC(=O)[C@@H]1CCCN1C(=O)[C@H](CC[S+](C)Cc1cccc(CBr)c1)NC(=O)[C@H](Cc1c[nH]c2ccccc12)NC(C)=O)C(=O)N[C@@H](C)C(N)=O` (stereo partly drawn) [Ac-Trp-Met-Pro-His-Met-Ala-NH2], the ring closure, conversion by HPLC in data set [3] (21-membered ring) is 84%.
As for `CSCC[C@H](NC(=O)CNC(=O)[C@H](Cc1ccc(O)cc1)NC(=O)[C@@H]1CCCN1C(=O)[C@H](CC[S+](C)Cc1cccc(CBr)c1)NC(=O)[C@H](Cc1c[nH]c2ccccc12)NC(C)=O)C(=O)N[C@@H](C)C(N)=O` (stereo partly drawn) [Ac-Trp-Met-Pro-Tyr-Gly-Met-Ala-NH2], in data set [3] (24-membered ring), the ring closure, conversion by HPLC amounted to 70%.
